This is an account of results in patent US10246457B2, “Indazole and azaindazole Btk inhibitors” (MERCK SHARP & DOHME CORP., priority 2015, dated 2019).

Assay [1] deals with 100P Btk enzyme (activated full-length Btk) (Homo sapiens (Human), UniProt Q06187). Nature of the assay: 100P Btk Enzyme Activity Assay (LANCE TR-FRET). The format is biochemical. The conditions noted are these: activated Btk (100P), 25 μM ATP, 60 minute compound and enzyme incubation; top concentration 1000 nM; read-out: Btk binding IC50 (nM) with 100 P. The method, then: Activated full-length Btk recombinant enzyme was expressed and purified in the same manner as the […] enzyme, except an auto-phosphorylation step was added to the purification scheme. […] This protein represents the activated state of the Btk enzyme. […] Btk Enzyme Activity Assay Btk enzymatic activity was determined with the LANCE (Lanthanide Chelate Excite) TR-FRET (lime-resolved fluorescence resonance energy transfer) assay. […] MW=79378 Da). […] Phosphorylation reactions were allowed to proceed for 45 minutes. […] After 60 minutes incubation with detection reagents, reaction plates were read on a PerkinElmer EnVision plate reader using standard TR-FRET protocol. Briefly, excitation of donor molecules (Eu-chelate:anti-phospho-antibody) with a laser light source at 337 nm produces energy that can be transferred to Dylight-650 acceptor molecules if this donor:acceptor pair is within close proximity. Fluorescence intensity at both 665 nm (acceptor) and 615 nm (donor) are measured and a TR-FRET ratio calculated for each well (acceptor intensity/donor intensity). […] (Log10) compound concentrations.

Assay [2] deals with 25P Btk enzyme (un-activated full-length Btk) (Homo sapiens (Human), UniProt Q06187). Nature of the assay: 25P Btk Enzyme Activity Assay (LANCE TR-FRET). Type of assay: biochemical. The conditions noted are these: un-activated Btk (25P), 25 μM ATP, 60 minute compound and enzyme incubation; read-out: Btk binding IC50 (nM) with 25 P. The procedure:
Preparation of Un-Activated Btk Enzyme (25P Btk)
Un-activated full-length Btk recombinant protein was purified from baculovirus-transfected Sf21 cells. […] This protein represents the un-activated state of the Btk enzyme.
25P Btk Enzyme Activity Assay
Btk enzymatic activity was determined with the LANCE (Lanthanide Chelate Excite) TR-FRET (lime-resolved fluorescence resonance energy transfer) assay. […] To each well of a black non-binding surface Corning 384-well microplate (Corning Catalog #3820), 5 nL of compound (2000 fold dilution in final assay volume of 10 μL) was dispensed, followed by the addition of 7.5 μL of 1× kinase buffer (50 mM Hepes 7.5, 10 mM MgCl2, 0.01% Brij-35, 1 mM EGTA, 0.05% BSA and 1 mM DTT) containing 26.67 pg/μL (266.7 pM) of 25P Btk enzyme (recombinant protein from baculovirus-transfected Sf9 cells: full-length Btk; MW=79378 Da). Following a 60 minute compound and enzyme incubation, each reaction was initiated by the addition of 2.5 μL 1× kinase buffer containing 8 μM biotinylated “A5” peptide (Biotin-EQEDEPEGDYFEWLE-NH2), and 100 μM ATP. The final reaction in each well of 10 consists of 200 pM 25P Btk, 2 μM biotin-A5-peptide, and 25 μM ATP. Phosphorylation reactions were allowed to proceed for 120 minutes. Reactions were immediately quenched by the addition of 20 uL of 1× quench buffer (15 mM EDTA, 25 mM Hepes 7.3, and 0.1% Triton X-100) containing detection reagents (0.626 nM of LANCE-Eu-W1024-anti-phosphoTyrosine antibody, PerkinElmer and 86.8 nM of Streptavidin-conjugated Dylight 650, Dyomics/ThermoFisher Scientific). After 60 minutes incubation with detection reagents, reaction plates were read on a PerkinElmer EnVision plate reader using standard TR-FRET protocol. Briefly, excitation of donor molecules (Eu-chelate:anti-phospho-antibody) with a laser light source at 337 nm produces energy that can be transferred to Dylight-650 acceptor molecules if this donor:acceptor pair is within close proximity. Fluorescence intensity at both 665 nm (acceptor) and 615 nm (donor) are measured and a TR-FRET ratio calculated for each well (acceptor intensity/donor intensity). IC50 values were determined by 4 parameter robust fit of TR-FRET ratio values vs. (Log10) compound concentrations.

Sequence of 25P Btk enzyme (un-activated full-length Btk) (Q06187 whole entry): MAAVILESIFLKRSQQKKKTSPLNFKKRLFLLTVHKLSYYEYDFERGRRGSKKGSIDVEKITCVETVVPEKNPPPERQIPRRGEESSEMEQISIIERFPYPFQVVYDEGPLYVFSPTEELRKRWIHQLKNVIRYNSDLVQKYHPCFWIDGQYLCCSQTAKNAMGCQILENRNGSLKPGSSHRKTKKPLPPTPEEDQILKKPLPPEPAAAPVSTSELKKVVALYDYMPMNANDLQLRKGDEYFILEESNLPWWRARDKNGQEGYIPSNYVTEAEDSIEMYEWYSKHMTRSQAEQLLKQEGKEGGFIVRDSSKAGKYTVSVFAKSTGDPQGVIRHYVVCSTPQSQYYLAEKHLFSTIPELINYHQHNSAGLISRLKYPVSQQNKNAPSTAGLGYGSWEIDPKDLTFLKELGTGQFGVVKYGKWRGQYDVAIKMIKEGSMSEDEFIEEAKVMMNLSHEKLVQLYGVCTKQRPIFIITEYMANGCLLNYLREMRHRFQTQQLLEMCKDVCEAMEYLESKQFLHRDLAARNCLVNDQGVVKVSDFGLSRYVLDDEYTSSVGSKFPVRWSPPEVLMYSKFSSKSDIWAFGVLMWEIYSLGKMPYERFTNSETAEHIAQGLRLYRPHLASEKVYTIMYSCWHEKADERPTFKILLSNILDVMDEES
Sequence of 100P Btk enzyme (activated full-length Btk) (Q06187 whole entry): as above

With `CC(C)(C)c1cc(F)c2c(=O)n(-c3cccc(-c4cc(-c5ccccn5)c5[nH]nc(N)c5c4)c3CO)ncc2c1` [Example 22, 2-(3-(3-amino-7-(pyridin-2-yl)-1H-indazol-5-yl)-2-(hydroxymethyl)phenyl)-6-(tert-butyl)-8-fluorophthalazin-1(2H)-one], the values for the concentration for half-maximal inhibition (IC50) in assay [1] and in assay [2] were 17.4 nM and 0.11 nM, respectively.
`CC(C)(C)c1cc(F)c2c(=O)n(-c3cccc(-c4cc(-c5cnn(CC(=O)O)c5)c5[nH]nc(N)c5c4)c3CO)ncc2c1` [Example 23, 2-(4-(3-amino-5-(3-(6-(tert-butyl)-8-fluoro-1-oxophthalazin-2(1H)-yl)-2-(hydroxymethyl)phenyl)-1H-indazol-7-yl)-1H-pyrazol-1-yl)acetic acid]: the figures for the IC50 in assay [1] and in assay [2] were 20 nM and 0.18 nM, respectively.
With `CC(C)(C)c1cc(F)c2c(=O)n(-c3cccc(-c4cc(-c5cnn(C(C)(C)C(=O)O)c5)c5[nH]nc(N)c5c4)c3CO)ncc2c1` [Example 24, 2-(4-(3-amino-5-(3-(6-(tert-butyl)-8-fluoro-1-oxophthalazin-2(1H)-yl)-2-(hydroxymethyl)phenyl)-1H-indazol-7-yl)-1H-pyrazol-1-yl)-2-methylpropanoic acid], the values for the half-maximal inhibitory concentration (IC50) in assay [1] and in assay [2] were 31.5 nM and 0.28 nM, respectively.
For `CC(C)(C)c1cc(F)c2c(=O)n(-c3cccc(-c4cc(-c5cnn(C6CCOCC6)c5)c5[nH]nc(N)c5c4)c3CO)ncc2c1` [Example 25, 2-(3-(3-amino-7-(1-(tetrahydro-2H-pyran-4-yl)-1H-pyrazol-4-yl)-1H-indazol-5-yl)-2-(hydroxymethyl)phenyl)-6-(tert-butyl)-8-fluorophthalazin-1(2H)-one] the same measures were 2.6 nM and 0.18 nM.
For `COCCn1cc(-c2cc(-c3cccc(-n4ncc5cc(C(C)(C)C)cc(F)c5c4=O)c3CO)cc3c(N)n[nH]c23)cn1` [Example 26, 2-(3-(3-amino-7-(1-(2-methoxyethyl)-1H-pyrazol-4-yl)-1H-indazol-5-yl)-2-(hydroxymethyl)phenyl)-6-(tert-butyl)-8-fluorophthalazin-1(2H)-one] the same measures were 5.3 nM and 0.096 nM.
For `Cc1nn(C)cc1-c1cc(-c2cccc(-n3ncc4cc(C(C)(C)C)cc(F)c4c3=O)c2CO)cc2c(N)n[nH]c12` [Example 27, 2-(3-(3-amino-7-(1,3-dimethyl-1H-pyrazol-4-yl)-1H-indazol-5-yl)-2-(hydroxymethyl)phenyl)-6-(tert-butyl)-8-fluorophthalazin-1(2H)-one] the same measures were 69.5 nM and 0.43 nM.
On to `CC(C)(C)c1cc(F)c2c(=O)n(-c3cccc(-c4cc(-c5cnn6c5CCCC6)c5[nH]nc(N)c5c4)c3CO)ncc2c1` [Example 28, 2-(3-(3-amino-7-(4,5,6,7-tetrahydropyrazolo[1,5-a]pyridin-3-yl)-1H-indazol-5-yl)-2-(hydroxymethyl)phenyl)-6-(tert-butyl)-8-fluorophthalazin-1(2H)-one], for which the IC50 in assay [1] amounted to 360 nM; in assay [2], 1.7 nM.
